Data reported in paper PMC9311539, “Antibacterial Activity against Clinical Isolates and In Vivo Efficacy of Coralmycins” (Antibiotics, 2022).
Converted amounts (≈) assume the structure as drawn. Like-named read-outs stand apart in the source and are kept apart here.

What was measured:
[1] = tested on: Vancomycin-sensitive E. faecalis; experiment: MIC, broth microdilution, clinical isolates: vancomycin-sensitive E. faecalis; format: cell-based, Enterococcus faecalis; conditions: Enterococcus faecalis
Description: (§1) To assess the MICs for antibiotic susceptibility, Gram-positive bacteria isolated from human clinical specimens were obtained from several general hospitals in Seoul, Korea, during 2002–2018. Staphylococcus aureus Giorgio and Streptococcus pneumoniae ATCC49619 were used to test in vivo efficacies against […], in mice.
(§2) The MICs of the antimicrobial agents were determined by a twofold microdilution broth method, as described by the Clinical and Laboratory Standards Institute. Briefly, test organisms were grown on Mueller–Hinton agar (MHA, BD Difco, Sparks, MD, USA) plates, subcultured into cation-adjusted Mueller–Hinton broth (CAMHB, BD Difco, Sparks, MD, USA), and incubated for 18 h at 35 °C. For S. pneumoniae culture, 5% sheep blood (Hanil Comed, Seongnam, Korea) was added. The cultured bacteria were diluted using phosphate-buffered saline (PBS) to achieve a bacterial cell density of approximately 5 × 10^6 CFU/mL. All test organisms were loaded into 96-well plates containing serial dilutions of the antimicrobial agents to achieve a concentration of 5 × 10^4 CFU/well. The plates were incubated at 35 °C for 18–20 h and examined for bacterial growth.

[2] = tested on: MRSA CCARM 3167; experiment: MIC against MRSA CCARM 3167; format: cell-based; conditions: Staphylococcus aureus
Description: as §2

[3] = in vivo; conditions: female, ICR, mouse, plasma
[4] = tested on: MRSA CCARM 3167; experiment: Time-kill assay, MRSA CCARM 3167; format: cell-based, Staphylococcus aureus
Description: (§3) Time-kill analysis was performed by the NCCLS M26-A method. The test organisms (S. aureus Giorgio, S. pneumoniae ATCC49619, MRSA CCARM 3167, and VRE 3) incubated in CAMHB for 18 h at 35 °C were diluted to 10^5 CFU/mL with fresh CAMHB, and the diluted cultures were preincubated for 2 h. For S. pneumoniae culture, 5% sheep blood (Hanil Comed, Seongnam, Korea) was added. […] Culture aliquots (0.1 mL) were removed after 0, 2, 4, 6 and 24 h of incubation, and serial 10-fold dilutions were prepared in saline as needed. The numbers of viable cells were determined on drug-free MHA plates after 20 h of incubation. A compound was considered bactericidal if the original inoculum was reduced by 3 log CFU/mL (99.9%) at each concentration or was considered bacteriostatic if the inoculum was reduced by 0–3 log CFU/mL.

[5] = tested on: VRE 3; experiment: Time-kill assay, VRE 3; format: cell-based, vancomycin-resistant Enterococcus
Description: as §3

[6] = tested on: S. pneumoniae ATCC49619; experiment: MIC against S. pneumoniae ATCC49619; format: cell-based; conditions: Streptococcus pneumoniae, ATCC49619
Description: as §2

[7] = tested on: VRE; experiment: MIC, broth microdilution, clinical isolates: VRE; format: cell-based, vancomycin-resistant Enterococcus; conditions: Enterococcus, VRE
Description: as §1, §2

[8] = tested on: S. aureus Giorgio; experiment: Neutropenic mouse thigh infection model; format: in vivo, female ICR mice
Description: (§4) For the respiratory tract infection model, neutropenic mice were anesthetized and intranasally inoculated with a 50 μL suspension of S. pneumoniae ATCC49619 (4.4 × 10^8 CFU/mL). For the thigh infection model, the neutropenic mice were administered an intramuscular injection of a 100 μL suspension of S. aureus Giorgio (1 × 10^6 CFU/mL) into both thighs. For both models, four mice were included in each group. At 2 h after infection, two mice were sacrificed, and the infected thighs or lungs (n = 4) were excised to determine the initial bacterial levels. […] At 24 h after infection, the mice were sacrificed by cervical dislocation; their thighs or lungs were removed, homogenized, serially diluted with saline, and plated onto MHA to count the number of bacteria remaining. The number of viable bacterial cells (CFU) in the thighs or lungs of vehicle- and drug-treated mice was determined.

[9] = tested on: S. pneumoniae; experiment: MIC, broth microdilution, clinical isolates: S. pneumoniae; format: cell-based, Streptococcus pneumoniae
Description: as §1, §2

[10] = tested on: Vancomycin-sensitive E. faecium; experiment: MIC, broth microdilution, clinical isolates: vancomycin-sensitive E. faecium; format: cell-based, Enterococcus faecium; conditions: Enterococcus faecium
Description: as §1, §2

[11] = tested on: S. pneumoniae ATCC49619; experiment: Neutropenic mouse respiratory tract infection model; format: in vivo, female ICR mice; conditions: for reduction of the starting bacterial burden compared to the 2-h control group: second trial
Description: as §4

[12] = tested on: CNS (coagulase-negative staphylococci); experiment: MIC, broth microdilution, clinical isolates: CNS; format: cell-based
Description: as §1, §2

[13] = tested on: S. pneumoniae ATCC49619; experiment: Time-kill assay, S. pneumoniae ATCC49619; format: cell-based, Streptococcus pneumoniae
Description: as §3

[14] = tested on: S. aureus Giorgio; experiment: MIC against S. aureus Giorgio; format: cell-based, Staphylococcus aureus; conditions: Staphylococcus aureus
Description: as §2

[15] = tested on: VRE 3; experiment: MIC against VRE 3; format: cell-based, vancomycin-resistant Enterococcus; conditions: Enterococcus
Description: as §2

[16] = tested on: MRSA; experiment: MIC, broth microdilution, clinical isolates: MRSA; format: cell-based, Staphylococcus aureus; conditions: for MIC50 / MIC90: Staphylococcus aureus, MRSA
Description: as §1, §2

[17] = tested on: S. aureus Giorgio; experiment: Time-kill assay, S. aureus Giorgio; format: cell-based, Staphylococcus aureus
Description: as §3

[18] = tested on: MSSA; experiment: MIC, broth microdilution, clinical isolates: MSSA; format: cell-based; conditions: Staphylococcus aureus
Description: as §1, §2

[19] = cited from earlier work
[20] = tested on: S. aureus; design: method as in PMID 28416551; conditions: s.c., cited from earlier work
[21] = 32 clinical isolates, read-out: MIC50
[22] = 32 clinical isolates, read-out: MIC90
[23] = s.c. 4 and 20 mg/kg at 3 and 6 h after infection

With `CO[C@@H](C(N)=O)[C@H](NC(=O)c1ccc(NC(=O)c2ccc([N+](=O)[O-])cc2)cc1)C(=O)Nc1ccc(C(=O)Nc2ccc(C(=O)Nc3ccc(C(=O)O)cc3OC(C)C)c(O)c2OC(C)C)cc1` [DH-coralmycin A] the MIC50 [1, 21] was 2 µg/mL (≈ 2.17 µM), the MIC90 [1, 22] was 4 µg/mL (≈ 4.35 µM) and the MIC ([2]; read-out: MIC) was 0.25 µg/mL (≈ 0.272 µM). The half-life ([3]; iv, 2 mg/kg) was 2.16 ± 1.08 h, the half-life ([3]; sc, 20 mg/kg) was 7.01 ± 1.22 h and the time-kill activity ([4]; 1× MIC) was “bacteriostatic (considered bacteriostatic if the inoculum was reduced by 0–3 log CFU/mL)”. The time-kill activity ([4]; 2× and 4× MIC, 24 h) was “bactericidal (considered bactericidal if the original inoculum was reduced by 3 log CFU/mL (99.9%) at each concentration)”, the time-kill activity ([5]; 1× MIC) was “bacteriostatic (considered bacteriostatic if the inoculum was reduced by 0–3 log CFU/mL)” and the time-kill activity ([5]; 2× and 4× MIC, 24 h) was “bactericidal (considered bactericidal if the original inoculum was reduced by 3 log CFU/mL (99.9%) at each concentration)”. For the same compound, the MIC ([6]; read-out: MIC) was 0.25 µg/mL (≈ 0.272 µM), the MIC50 ([7]; 46 clinical isolates, read-out: MIC50) was 4 µg/mL (≈ 4.35 µM) and the MIC90 ([7]; 46 clinical isolates, read-out: MIC90) was 16 µg/mL (≈ 17.4 µM). The “antibacterial effect in thigh infection model” value ([8]; 20 mg/kg bid) was “almost no antibacterial effect”, the “antibacterial effect in thigh infection model” value [8, 23] was “almost no antibacterial effect” and the MIC50 ([9]; Streptococcus pneumoniae, 27 clinical isolates, read-out: MIC50) was 0.5 µg/mL (≈ 0.544 µM). For the same compound, the MIC90 ([9]; Streptococcus pneumoniae, 27 clinical isolates, read-out: MIC90) was 4 µg/mL (≈ 4.35 µM), the MIC50 [10, 21] was 1 µg/mL (≈ 1.09 µM) and the MIC90 [10, 22] was 4 µg/mL (≈ 4.35 µM). The “in vivo effect (bacteriostatic or bactericidal)” value ([11]; 4 mg/kg bid s.c.) was “static effect”, the “in vivo effect (bacteriostatic or bactericidal)” value ([11]; 20 mg/kg bid s.c.) was “static effect” and the “in vivo effect (bacteriostatic or bactericidal)” value ([11]; 100 mg/kg bid s.c.) was “bactericidal effects”. For the same compound, the “antibacterial effect in respiratory tract infection model” value ([11]; first experiment, s.c. 4 and 20 mg/kg at 3 and 6 h after infection) was “significant antibacterial effects”, the “reduction of the starting bacterial burden compared to the 2-h control group” value ([11]; s.c. 100 mg/kg bid) was 0.96 log10 CFU/lung and the MIC50 ([12]; 31 clinical isolates, read-out: MIC50) was 1 µg/mL (≈ 1.09 µM). The MIC90 ([12]; 31 clinical isolates, read-out: MIC90) was 16 µg/mL (≈ 17.4 µM), the time-kill activity ([13]; 1× MIC) was “bacteriostatic (considered bacteriostatic if the inoculum was reduced by 0–3 log CFU/mL)” and the time-kill activity ([13]; 2× and 4× MIC, 24 h) was “bactericidal (considered bactericidal if the original inoculum was reduced by 3 log CFU/mL (99.9%) at each concentration)”. It also gave an MIC ([14]; read-out: MIC) of 0.06 µg/mL (≈ 0.0652 µM), an MIC ([15]; read-out: MIC) of 2 µg/mL (≈ 2.17 µM) and an MIC50 ([16]; 42 clinical isolates, read-out: MIC50) of 4 µg/mL (≈ 4.35 µM). The MIC90 ([16]; 42 clinical isolates, read-out: MIC90) was 8 µg/mL (≈ 8.7 µM), the “times less active than coralmycin A as evidenced by the MIC90” value ([16]; against MRSA, CNS, and VRE) was 8 to 16 times and the time-kill activity ([17]; 1× MIC) was “bacteriostatic (considered bacteriostatic if the inoculum was reduced by 0–3 log CFU/mL)”. For the same compound, the time-kill activity ([17]; 2× and 4× MIC, 24 h) was “bactericidal (considered bactericidal if the original inoculum was reduced by 3 log CFU/mL (99.9%) at each concentration)”, the MIC50 ([18]; 26 clinical isolates, read-out: MIC50) was 1 µg/mL (≈ 1.09 µM) and the MIC90 ([18]; 26 clinical isolates, read-out: MIC90) was 2 µg/mL (≈ 2.17 µM).
For `CN[C@H](CC(C)C)C(=O)N[C@H]1C(=O)N[C@@H](CC(N)=O)C(=O)N[C@H]2C(=O)N[C@H]3C(=O)N[C@H](C(=O)N[C@H](C(=O)O)c4cc(O)cc(O)c4-c4cc3ccc4O)[C@H](O)c3ccc(c(Cl)c3)Oc3cc2cc(c3O[C@@H]2O[C@H](CO)[C@@H](O)[C@H](O)[C@H]2O[C@H]2C[C@](C)(N)[C@H](O)[C@H](C)O2)Oc2ccc(cc2Cl)[C@H]1O` [Vancomycin], the MIC50 [1] was 2 µg/mL (≈ 1.38 µM), the MIC90 [1] was 2 µg/mL (≈ 1.38 µM) and the MIC [2] was 2 µg/mL (≈ 1.38 µM). For the same compound, the time-kill activity ([4]; 2× and 4× MIC, 24 h) was “bactericidal (considered bactericidal if the original inoculum was reduced by 3 log CFU/mL (99.9%) at each concentration)”, the MIC [6] was 0.5 µg/mL (≈ 0.345 µM) and the MIC50 [7] was over 32 µg/mL. The MIC90 [7] was over 32 µg/mL, the “antibacterial effect in thigh infection model” value [8, 23] was “bacteriostatic activity” and the MIC90 ([9]; 27 clinical isolates) was 0.5 µg/mL (≈ 0.345 µM). It also gave an MIC50 ([9]; Streptococcus pneumoniae) of 0.25 µg/mL (≈ 0.173 µM), an MIC90 ([9]; Streptococcus pneumoniae) of 0.5 µg/mL (≈ 0.345 µM) and an MIC50 [10] of 1 µg/mL (≈ 0.69 µM). The MIC90 [10] was 2 µg/mL (≈ 1.38 µM), the “bound to plasma proteins” value [19] was 10–50% and the “in vivo effect (bacteriostatic or bactericidal)” value ([11]; 4 mg/kg bid s.c.) was “bacteriostatic”. The “in vivo effect (bacteriostatic or bactericidal)” value ([11]; 20 mg/kg bid s.c.) was “bactericidal”, the “reduction of the starting bacterial burden compared to the 2-h control group” value ([11]; 20 mg/kg bid) was 1.46 log10 CFU/lung and the MIC50 [12] was 2 µg/mL (≈ 1.38 µM). For the same compound, the MIC90 [12] was 4 µg/mL (≈ 2.76 µM), the in vivo effect ([20]; high doses of 20–320 mg/kg bid) was “bactericidal effects” and the in vivo effect ([20]; low doses of 0.3–5 mg/kg bid) was “bacteriostatic effects”. The time-kill activity ([13]; 2× and 4× MIC, 24 h) was “bactericidal (considered bactericidal if the original inoculum was reduced by 3 log CFU/mL (99.9%) at each concentration)”, the MIC [14] was 2 µg/mL (≈ 1.38 µM) and the MIC [15] was 64 µg/mL (≈ 44.2 µM). The MIC50 [16] was 1 µg/mL (≈ 0.69 µM), the MIC90 [16] was 2 µg/mL (≈ 1.38 µM) and the time-kill activity ([17]; 2× and 4× MIC, 24 h) was “bactericidal (considered bactericidal if the original inoculum was reduced by 3 log CFU/mL (99.9%) at each concentration)”. For the same compound, the MIC50 [18] was 1 µg/mL (≈ 0.69 µM) and the MIC90 [18] was 2 µg/mL (≈ 1.38 µM).
